Experimental data from ChEMBL document CHEMBL1201862, “PubChem BioAssay data set” (2004).
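Compound exposure: 48 hours, 5 concentrations, 96-well plates. Here, GI50 denotes the concentration required for 50% inhibition of growth.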 The source made the active and inactive calls. Cut-off read from the data, not from the text of the source: active = GI50 up to about 1.1 µM and inactive = higher.

Columns and labels:
Assay in all cases: NCI-60 cell line screen, 48 h
[1] = tested on: 786-0
[2] = tested on: ACHN
[3] = tested on: DU-145
[4] = tested on: HCC 2998
[5] = tested on: HCT-116
[6] = tested on: HCT-15
[7] = tested on: HL-60
[8] = tested on: HOP-92
[9] = tested on: IGROV-1
[10] = tested on: K562
[11] = tested on: OVCAR-4
[12] = tested on: PC-3
[13] = tested on: SF-295
[14] = tested on: SF-539
[15] = tested on: SK-MEL-28
[16] = tested on: SK-MEL-2
[17] = tested on: SK-MEL-5
[18] = tested on: SNB-75
[19] = tested on: U-251
[20] = tested on: UACC-257

OC1c2ccccc2[C@@H]2[C@H]1[C@@H](c1ccccc1)C1(Cc3ccccc3C1O)[C@H]2c1ccccc1 (stereo not given in full)
GI50 [1]: 2.96 µM (inactive)
GI50 [2]: 6.37 µM (inactive)
GI50 [3]: 9.86 µM (inactive)
GI50 [4]: 1.91 µM (inactive)
GI50 [5]: 3.03 µM (inactive)
GI50 [6]: 4.07 µM
GI50 [7]: 2.01 µM (inactive)
GI50 [8]: 3.35 µM (inactive)
GI50 [9]: 4.37 µM (inactive)
GI50 [10]: 3.02 µM (inactive)
GI50 [11]: 4.04 µM (inactive)
GI50 [12]: 3 µM (inactive)
GI50 [13]: 6.75 µM (inactive)
GI50 [14]: 13.4 µM (inactive)
GI50 [15]: 9.55 µM (inactive)
GI50 [16]: 7.06 µM (inactive)
GI50 [17]: 6.21 µM (inactive)
GI50 [18]: 7.73 µM (inactive)
GI50 [19]: 3.92 µM (inactive)
GI50 [20]: 3.93 µM (inactive)

COC(=O)C1=CC(=O)OC1(OO)c1ccc(Br)cc1 (stereo not given)
GI50 [1]: 65.2 µM (inactive)
GI50 [2]: > 100 µM (inactive)
GI50 [3]: > 100 µM (inactive)
GI50 [4]: > 100 µM (inactive)
GI50 [5]: 47.1 µM (inactive)
GI50 [6]: 46.5 µM
GI50 [7]: 40.3 µM (inactive)
GI50 [8]: > 100 µM (inactive)
GI50 [9]: > 100 µM (inactive)
GI50 [10]: 33.7 µM (inactive)
GI50 [11]: > 100 µM (inactive)
GI50 [12]: > 100 µM (inactive)
GI50 [13]: > 100 µM (inactive)
GI50 [14]: > 100 µM (inactive)
GI50 [15]: > 100 µM (inactive)
GI50 [16]: > 100 µM (inactive)
GI50 [17]: > 100 µM (inactive)
GI50 [18]: > 100 µM (inactive)
GI50 [19]: > 100 µM (inactive)
GI50 [20]: > 100 µM (inactive)
